Data: US7087622B2, “Pyridone compounds as inhibitors of bacterial type III protein secreation systems” (priority 2004, dated 2006)

Assays:
[1] = tested on: SPI1 type III protein secretion system (SopE-Bla secretion); assay: Primary assay: Type III protein secretion of the chimeric SopE-Bla polypeptide by Salmonella enterica (nitrocefin hydrolysis); format: cell-based; settings: read-out: SopE IC50(uM)
Source text: Primary assay: Type III protein secretion of the chimeric SopÉ-Bla polypeptide by Salmonella enterica. This procedure is a cell-based assay that measures the type III-dependent secretion by Salmonella enterica of a plasmid-encoded chimeric polypeptide whose synthesis can be regulated, and which is endowed with an enzymatic activity that can be monitored calorimetrically by hydrolysis of a substrate that is unable to penetrate into the bacterial cytoplasm within the time constraints of the reaction. Thus, the colorimetric reaction is not influenced by SopÉ-Bla polypeptide in the bacterial cytoplasm. Instead, it effectively measures the amount of polypeptide that has been secreted from the S. enterica cytoplasm to the extracellular medium via type III system protein secretion.
The SopÉ-Bla recombinant polypeptide consists of two functionally distinct domains spliced together. The N-terminus domain is encoded by a polynucleotide region specifying the signal for type III secretion of the SopE polypeptide of S. enterica, an effector of the SPI1 type III protein secretion system. The C-terminus domain of SopÉ-Bla consists of a 263 amino acid peptide sequence that corresponds to the TEM-1 β-lactamase expressed by plasmid pBR322 but without its N-terminal signal sequence. The TEM-1 β-lactamase part of the SopÉ-Bla chimeric polypeptide is used as a reporter enzyme. It is capable of hydrolyzing nitrocefin resulting in a product whose accumulation can be monitored by colorimetric detection. The secretion of the SopÉ-Bla chimeric polypeptide from the cytoplasm to the extracellular medium is dependent on type III protein secretion.
For this procedure, cells grown under conditions known to favor a functional SPI1 secretion system are induced for expression of the SopÉ-Bla protein and grown either in the presence or in the absence of putative inhibitors for determined time. Nitrocefin is then added to the various cultures and its hydrolysis are used for quantitation. An inhibitor of Type III protein secretion is generally a compound that reduces the signal of the enzymatic reaction by decreasing the amount of SopÉ-Bla secreted into the extracellular medium.

[2] = tested on: SPI1 type III protein secretion system (SipB secretion); assay: Secondary assay: Type III-dependent protein secretion of the SipB polypeptide by S. enterica (immunoblot); format: cell-based; settings: Salmonella enterica, read-out: SipB IC50(uM)
Method: Secondary assay: Type III-dependent protein secretion of the SipB polypeptide by S. enterica. The SipB protein of S. enterica is another effector of the SPI1 type III protein secretion system from S. enterica. In this cell-based procedure, the Type III-dependent secretion of SipB from the bacterial cytoplasm to the extracellular medium was measured through its reactivity with a cognate mouse monoclonal.
Salmonella enterica cells growing either in the presence or in the absence of inhibitors are induced for the production of SipB. Following an established period of growth the cells are sedimented and the amount of SipB present in the supernatant is quantified with a scanning imager following application of immunoblot techniques. Detection may employ an anti-SipB mouse monoclonal antibody (e.g., obtained from Jorge Galan, SUNY at Stony Brook, N.Y.) followed by treatment with commercially available sheep anti-mouse polyclonal antibody conjugated with horseradish peroxidase. Thereafter the membrane is treated with a peroxidase chemiluminescent substrate and exposed to film for an appropriate exposure time. Inhibition may be measured relative to untreated controls.

Row | Structure (SMILES) | IC50 [1] [µM] | IC50 [2] [µM]
1 | O=C(Nc1cc(-c2cccc3ccccc23)cn(C(CSCc2ccccc2)C(=O)O)c1=O)c1ccc(C(F)(F)F)cc1 (stereo in doubt) [Compound 16, (R)-3-Benzylsulfanyl-2-[5-naphthalen-1-yl-2-oxo-3-(4-trifluoromethyl-benzoylamino)-2H-pyridin-1-yl]propionic acid] | 6.4 | > 100
2 | O=C(Nc1cc(-c2ccc(-c3ccccc3)cc2)cn([C@@H](Cc2ccccc2)C(=O)O)c1=O)c1ccc(C(F)(F)F)cc1 [Compound 2, (S)-2-[5-Biphenyl-4-yl-2-oxo-3-(4-trifluoromethylbenzoylamino)-2H-pyridin-1-yl]-3-phenylpropionic acid] | 9.3 | > 100
3 | O=C(Nc1cc(-c2ccc3ccccc3c2)cn([C@@H](Cc2ccccc2)C(=O)O)c1=O)c1ccc(C(F)(F)F)cc1 [Compound 3, (S)-2-[5-Naphthalen-2-yl-2-oxo-3-(4-trifluoromethylbenzoylamino)-2H-pyridin-1-yl]-3-phenylpropionic acid] | 28.5 | > 100
4 | O=C(Nc1cc(-c2cncnc2)cn([C@@H](Cc2ccccc2)C(=O)O)c1=O)c1ccc(C(F)(F)F)cc1 [Compound 7, (S)-2-[2-Oxo-5-pyrimidin-5-yl-3-(4-trifluoromethylbenzoylamino)-2H-pyridin-1-yl]-3-phenylpropionic acid] | 82.3 | > 100
5 | CN(C)c1ccc(-c2cc(NC(=O)c3ccc(C(F)(F)F)cc3)c(=O)n([C@@H](COCc3ccccc3)C(=O)O)c2)cc1 [Compound 11, (S)-3-Benzyloxy-2-[5-(4-dimethylaminophenyl)-2-oxo-3-(4-trifluoromethyl-benzoylamino)-2H-pyridin-1-yl]propionic acid] | 76 | > 100
6 | CC(C)Oc1ccc(-c2cc(NC(=O)c3ccc(C(F)(F)F)cc3)c(=O)n([C@@H](COCc3ccccc3)C(=O)O)c2)cc1 [Compound 12, (S)-3-Benzyloxy-2-[5-(4-isopropoxyphenyl)-2-oxo-3-(4-trifluoromethyl-benzoylamino)-2H-pyridin-1-yl]propionic acid] | 67.2 | > 100
7 | O=C(Nc1cc(-c2ccc3ccccc3c2)cn([C@@H](COCc2ccccc2)C(=O)O)c1=O)c1ccc(C(F)(F)F)cc1 [Compound 13, (S)-3-Benzyloxy-2-[5-naphthalen-2-yl-2-oxo-3-(4-trifluoromethylbenzoylamino)-2H-pyridin-1-yl]propionic acid] | 48 | > 100
8 | O=C(Nc1cc(-c2ccc(-c3ccccc3)cc2)cn(C(Cc2ccc(Cl)cc2)C(=O)O)c1=O)c1ccc(C(F)(F)F)cc1 (stereo not shown) [Compound 17, 2-[5-Biphenyl-4-yl-2-oxo-3-(4-trifluoromethylbenzoylamino)-2H-pyridin-1-yl]-3-(4-chlorophenyl)propionic acid] | 2 | > 100
9 | O=C(Nc1cc(-c2ccc(Oc3ccccc3)cc2)cn(C(Cc2ccc(Cl)cc2)C(=O)O)c1=O)c1ccc(C(F)(F)F)cc1 (stereo not shown) [Compound 18, 3-(4-Chlorophenyl)-2-[2-oxo-5-(4-phenoxyphenyl)-3-(4-trifluoromethyl-benzoylamino)-2H-pyridin-1-yl]propionic acid] | 2.3 | > 100
10 | O=C(Nc1cc(-c2cccc3ccccc23)cn(C(Cc2ccc(Cl)cc2)C(=O)O)c1=O)c1ccc(C(F)(F)F)cc1 (stereo not shown) [Compound 19, 3-(4-Chlorophenyl)-2-[5-naphthalen-1-yl-2-oxo-3-(4-trifluoromethyl-benzoylamino)-2H -1-yl]propionic acid] | 5.5 | > 100
11 | O=C(Nc1cc(-c2cccc(C(F)(F)F)c2)cn(C(Cc2ccc(Cl)cc2)C(=O)O)c1=O)c1ccc(Oc2ccccc2)cc1 (stereo not shown) [Compound 23, 3-(4-Chlorophenyl)-2-[2-oxo-3-(4-phenoxybenzoylamino)-5-(3-trifluoromethyl-phenyl)-2H-pyridin-1-yl]propionic acid] | 9.8 | > 100
12 | O=C(Nc1cc(-c2cc3ccccc3o2)cn(C(Cc2ccc(Cl)cc2)C(=O)O)c1=O)c1ccc(C(F)(F)F)cc1 (stereo not shown) [Compound 25, 2-[5-Benzofuran-2-yl-2-oxo-3-(4-trifluoromethylbenzoylamino)-2H-pyridin-1-yl]-3-(4-chlorophenyl)propionic acid] | 3.7 | > 100
13 | O=C(Nc1cc(-c2cc3ccccc3s2)cn(C(Cc2ccc(Cl)cc2)C(=O)O)c1=O)c1ccc(C(F)(F)F)cc1 (stereo not shown) [Compound 26, 2-[5-Benzo[b]thiophen-2-yl-2-oxo-3-(4-trifluoromethylbenzoylamino)-2H-pyridin-1-yl]-3-(4-chlorophenyl)propionic acid] | 2.4 | > 100
14 | CC(=O)c1ccc(-c2cc(NC(=O)c3ccc(C(F)(F)F)cc3)c(=O)n(C(Cc3ccc(Cl)cc3)C(=O)O)c2)s1 (stereo not shown) [Compound 27, 2-[5-(5-Acetylthiophen-2-yl)-2-oxo-3-(4-trifluoromethylbenzoylamino)-2H-pyridin-1-yl]-3-(4-chlorophenyl)propionic acid] | 34.2 | > 100
15 | CC(=O)Nc1cccc(-c2cc(NC(=O)c3ccc(C(F)(F)F)cc3)c(=O)n(C(Cc3ccc(Cl)cc3)C(=O)O)c2)c1 (stereo not shown) [Compound 28, 2-[5-(3-Acetylaminophenyl)-2-oxo-3-(4-trifluoromethylbenzoylamino)-2H-pyridin-1-yl]-3-(4-chlorophenyl)propionic acid] | 52.4 | > 100
16 | O=C(Nc1cc(-c2ccc(O)cc2)cn(C(Cc2ccc(Cl)cc2)C(=O)O)c1=O)c1ccc(C(F)(F)F)cc1 (stereo not shown) [Compound 29, 3-(4-Chlorophenyl)-2-[5-(4-hydroxyphenyl)-2-oxo-3-(4-trifluoromethyl-benzoylamino)-2H-pyridin-1-yl]propionic acid] | 31.8 | > 100
17 | O=C(Nc1cc(C#Cc2ccccc2)cn(C(Cc2ccc(Cl)cc2)C(=O)O)c1=O)c1ccc(C(F)(F)F)cc1 (stereo not shown) [Compound 31, 3-(4-Chlorophenyl)-2-[2-oxo-5-phenylethynyl-3-(4-trifluoromethylbenzoylamino)-2H-pyridin-1-yl]propionic acid] | 34.2 | > 100
18 | O=C(Nc1cc(-c2ccccc2)cn(C(Cc2ccc(Cl)cc2)C(=O)O)c1=O)c1ccc(-c2ccccc2)cc1 (stereo not shown) [Compound 32, 2-{3-[(Biphenyl-4-carbonyl)amino]-2-oxo-5-phenyl-2H-pyridin-1-yl}-3-(4-chloro-phenyl)propionic acid] | 2.3 | > 100
19 | O=C(Nc1cc(-c2cc(F)cc(F)c2)cn(C(Cc2ccc(Cl)cc2)C(=O)O)c1=O)c1ccc(-c2ccccc2)cc1 (stereo not shown) [Compound 36, [3-[(Biphenyl-4-carbonyl)amino]-5-(3,5-difluorophenyl)-2-oxo-2H-pyridin-1-yl]-3-(4-chlorophenyl)propionic acid] | 2.4 | > 100
20 | O=C(Nc1cc(-c2ccc(Br)cc2)cn(C(Cc2ccc(Cl)cc2)C(=O)O)c1=O)c1ccc(-c2ccccc2)cc1 (stereo not shown) [Compound 37, 2-[3-[(Biphenyl-4-carbonyl)amino]-5-(4-bromophenyl)-2-oxo-2H-pyridin-1-yl]-3-(4-chlorophenyl)propionic acid] | 1.5 | > 100
21 | O=C(Nc1cc(-c2cccc3ccccc23)cn(C(Cc2ccc(Cl)cc2)C(=O)O)c1=O)c1ccc(-c2ccccc2)cc1 (stereo not shown) [Compound 46, 2-{3-[(Biphenyl-4-carbonyl)amino]-5-naphthalen-1-yl-2-oxo-2H-pyridin-1-yl}-3-(4-chlorophenyl)propionic acid] | 1.1 | > 100
22 | O=C(Nc1cc(-c2ccc(Cl)cc2)cn(C(Cc2ccc(Cl)cc2)C(=O)O)c1=O)c1ccc(Oc2ccccc2)cc1 (stereo not shown) [Compound 52, 3-(4-Chlorophenyl)-2-[5-(4-chlorophenyl)-2-oxo-3-(4-phenoxybenzoylamino)-2H-pyridin 1-yl]propionic acid] | 9 | > 100
23 | O=C(Nc1cc(-c2ccc(C(F)(F)F)cc2)cn(C(Cc2ccc(Cl)cc2)C(=O)O)c1=O)c1ccc(Oc2ccccc2)cc1 (stereo not shown) [Compound 54, 3-(4-Chlorophenyl)-2-[2-oxo-3-(4-phenoxybenzoylamino)-5-(4-trifluoromethyl-phenyl)-2H-pyridin-1-yl]propionic acid] | 16.6 | > 100
